Experimental findings from US9980973B2, “Bicyclic heterocycle compounds and their uses in therapy” (ASTEX THERAPEUTICS LIMITED, priority 2012, dated 2018) are described below.

pEC50: −log10 of the molar value. Counter-ions that a name gives are not always drawn. Like-named read-outs stand apart in the source and are kept apart here.

In assay [1] the test system is EVSA-T (human breast carcinoma). Put plainly: Anti-proliferative activity, Alamar Blue assay, EVSA-T. It counts as cell-based. (In general: Alamar Blue is a resazurin reagent that responds to reducing activity.)
Assay [2] addresses T1, BIR3 domain of human XIAP (Homo sapiens, UniProt P98170).
T1 construct: BIR3 domain of human XIAP (residues 252-350) fused to a His-tag; His-tag (cleaved yes); made in house; host or cells: Escherichia coli
Put plainly: XIAP in vitro competitive displacement binding assay (fluorescence polarization). The following applies: for inhibition at 0.04 µM: 1 h, PI at 0.04 μM, read-out: Xiap IC50 or PI μM (PI); for IC50: plain number = IC50, average where more than one data point, read-out: Xiap IC50 or PI μM (IC50). For orientation: In fluorescence polarisation assays a small probe gives low polarisation when free and higher when bound to something large.

Where [3] appears, read: Homo sapiens, EVSA-T, 72 h, EVSA-T cells, 72 hours, Alamar Blue, read-out: EVSA-T prolif.
Setting [4] is: Homo sapiens, EVSA-T, read-out: EC50 in EVSA-T cell line assays.
[5] abbreviates: EVSA-T cells, 72 hours, Alamar Blue, dihydrochloride, read-out: EVSA-T prolif.

T1 sequence (P98170 252-350): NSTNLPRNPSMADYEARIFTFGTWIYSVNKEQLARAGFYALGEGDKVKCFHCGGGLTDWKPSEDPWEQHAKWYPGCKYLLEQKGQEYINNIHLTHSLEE

Regarding `C[C@@H]1CN(CC(=O)N2CC(C)(C)c3cnc(Cc4ccc(F)cc4F)cc32)[C@@H](CN2CCOC[C@@]2(C)CO)CN1` (single isomer, unassigned) [Example 67, dihydrochloride], the pEC50 in assay [1] (setting [3]) is 8.43; in assay [1] (setting [4]), > 6.00. The inhibition at 0.04 µM in assay [2] was 65%.
For `CCCC(F)(F)c1cc2c(cn1)C(C)(C)CN2C(=O)CN1C[C@@H](C)NC[C@@H]1CN1CCOC[C@@]1(C)CO` (single isomer, unassigned) [Example 68, dihydrochloride] the same measures were 7.66, > 6.00 and 69%.
For `CCCC(F)(F)c1cc2c(cn1)C(C)(C)CN2C(=O)CN1C[C@@H](C)NC[C@@H]1CN1CCOC[C@]1(C)CO` (single isomer, unassigned) [Example 69, dihydrochloride], the pEC50 in assay [1] (setting [3]) was 8.25; in assay [1] (setting [4]), > 6.00. In addition, in assay [2], the inhibition at 0.04 µM came out at 71%.
For `CCCC(O)c1cnc2c(c1)N(C(=O)CN1C[C@@H](C)NC[C@@H]1CN1[C@H](C)COC[C@H]1C)CC2(C)C` (single isomer, unassigned) [Example 101, 2-[(2R,5R)-2-{[(3R,5R)-3,5-Dimethylmorpholin-4-yl]methyl}-5-methylpiperazin-1-yl]-1-[6-(1-(R or S)-hydroxybutyl)-3,3-dimethyl-1H,2H,3H-pyrrolo[3,2-b]pyridin-1-yl]ethan-1-one dihydrochloride] the same measures were 7.51, > 6.00 and 47%.
`C[C@@H]1CN(CC(=O)N2CC(C)(C)c3ncc(C(O)c4cccc(F)c4)cc32)[C@@H](CN2[C@H](C)COC[C@H]2C)CN1` (single isomer, unassigned) [Example 105, 2-[(2R,5R)-2-{[(3R,5R)-3,5-Dimethylmorpholin-4-yl]methyl}-5-methylpiperazin-1-yl]-1-{6-[(R or S)-(3-fluorophenyl)-(hydroxy)methyl]-3,3-dimethyl-1H,2H,3H-pyrrolo[3,2-b]pyridin-1-yl}ethan-1-one dihydrochloride]: the results for the pEC50 in assay [1] (setting [5]) and in assay [1] (setting [4]) were 7.46 and > 6.00, respectively. For the same molecule, in assay [2], the inhibition at 0.04 µM is 60%.
For `C[C@@H]1CN(CC(=O)N2CC(C)(C)c3ncc(C(O)c4ccccc4F)cc32)[C@@H](CN2[C@H](C)COC[C@H]2C)CN1` (single isomer, unassigned) [Example 107, 2-[(2R,5R)-2-{[(3R,5R)-3,5-Dimethylmorpholin-4-yl]methyl}-5-methylpiperazin-1-yl]-1-{6-[(R or S)-(2-fluorophenyl)-(hydroxy)methyl]-3,3-dimethyl-1H,2H,3H-pyrrolo[3,2-b]pyridin-1-yl}ethan-1-one dihydrochloride] the same measures were 8.15, > 6.00 and 57%.
As for `C[C@@H]1CN(CC(=O)N2CC(C)(C)c3ncc(C(O)c4cccc(F)c4F)cc32)[C@@H](CN2[C@H](C)COC[C@H]2C)CN1` (single isomer, unassigned) [Example 111, (R or S)-1-{6-[(2,3-Difluorophenyl)(hydroxy)meth-yl]-3,3-dimethyl-1H,2H,3H-pyrrolo[3,2-b]pyridin-1-yl}-2-[(2R,5R)-2-{[(3R,5R)-3,5-dimethylmorpholin-4-yl]methyl}-5-methylpiperazin-1-yl]ethan-1-one dihydrochloride], the figures for the pEC50 in assay [1] (setting [3]) and in assay [1] (setting [4]) were 7.60 and > 6.00, respectively. For the same molecule, in assay [2], the inhibition at 0.04 µM came to 45%.
For the molecule `C[C@@H]1CN(CC(=O)N2CC(C)(C)c3ncc(C(O)c4cc(F)ccc4F)cc32)[C@@H](CN2[C@H](C)COC[C@H]2C)CN1` (single isomer, unassigned) [Example 116, 1-{(R or S)-6-[(2,5-Difluorophenyl)(hydroxy)meth-yl]-3,3-dimethyl-1H,2H,3H-pyrrolo[3,2-b]pyridin-1-yl}-2-[(2R,5R)-2-{[(3R,5R)-3,5-dimethylmorpholin-4-yl]methyl}-5-methylpiperazin-1-yl]ethan-1-one dihydrochloride], in assay [1] (setting [5]), the pEC50 was 7.26. Moreover, the inhibition at 0.04 µM in assay [2] was found to be 47%.
For `COC[C@@H]1COCCN1C[C@H]1CN[C@H](C)CN1CC(=O)N1CC(C)(C)c2ncc(Cc3ccc(F)cc3)cc21` [Example 1, 1-{6-[(4-Fluorophenyl)methyl]-3,3-dimethyl-1H,2H,3H-pyrrolo[3,2-b]pyridin-1-yl}-2-[(2R,5R)-2-{[(3R)-3-(methoxymethyl)morpholin-4-yl]methyl}-5-methylpiperazin-1-yl]ethan-1-one dihydrochloride], the figures for the pEC50 in assay [1] (setting [3]) and in assay [1] (setting [4]) were 8.54 and > 6.00, respectively. Further, the inhibition at 0.04 µM in assay [2] was 35%.
For `C[C@@H]1CN(CC(=O)N2CC(C)(C)c3ncc(Cc4ccc(F)cc4)cc32)[C@@H](CN2CCOC[C@H]2CO)CN1` [Example 2, 1-{6-[(4-Fluorophenyl)methyl]-3,3-dimethyl-1H,2H,3H-pyrrolo[3,2-b]pyridin-1-yl}-2-[(2R,5R)-2-{[(3R)-3-(hydroxymethyl)morpholin-4-yl]methyl}-5-methylpiperazin-1-yl]ethan-1-one dihydrochloride] the same measures were 8.77, > 6.00 and 40%.
For `C[C@@H]1CN(CC(=O)N2CC(C)(C)c3ncc(Cc4ccc(F)cc4)cc32)[C@@H](CN2CCCC(F)(F)C2)CN1` [Example 3, 2-[(2R,5R)-2-[(3,3-Difluoropiperidin-1-yl)methyl]-5-methylpiperazin-1-yl]-1-{6-[(4-fluorophenyl)methyl]-3,3-dimethyl-1H,2H,3H-pyrrolo[3,2-b]pyridin-1-yl}ethan-1-one dihydrochloride] the same measures were 8.17, > 6.00 and 37%.
By IC50 is commonly meant the concentration that inhibits the measured activity by half. Consider `C[C@@H]1CN(CC(=O)N2CC(C)(C)c3ncc(Cc4ccc(F)cc4)cc32)[C@@H](CN2C[C@@H]3C[C@H]2CO3)CN1` [Example 7, 1-{6-[(4-Fluorophenyl)methyl]-3,3-dimethyl-1H,2H,3H-pyrrolo[3,2-b]pyridin-1-yl}-2-[(2R,5R)-5-methyl-2-[(1S,4S)-2-oxa-5-azabicyclo[2.2.1]heptan-5-ylmethyl]piperazin-1-yl]ethan-1-one dihydrochloride], for which the figures for the pEC50 in assay [1] (setting [3]) and in assay [1] (setting [4]) were 8.21 and > 6.00, respectively. For the same molecule, the concentration for half-maximal inhibition (IC50) in assay [2] was 0.16 µM.
For `C[C@@H]1CN(CC(=O)N2CC(C)(C)c3ncc(Cc4ccc(F)cc4)cc32)[C@@H](CN2CCC[C@H]2CO)CN1` [Example 12, 1-{6-[(4-Fluorophenyl)methyl]-3,3-dimethyl-1H,2H,3H-pyrrolo[3,2-b]pyridin-1-yl}-2-[(2R,5R)-2-{[(2S)-2-(hydroxymethyl)pyrrolidin-1-yl]methyl}-5-methylpiperazin-1-yl]ethan-1-one dihydrochloride] the same measures were 8.80, > 6.00 and 0.15 µM.
For the molecule `C[C@@H]1CN(CC(=O)N2CC(C)(C)c3ncc(Cc4ccc(F)cc4)cc32)[C@@H](CN2CC3CCC(C2)O3)CN1` [Example 18, 1-{6-[(4-Fluorophenyl)methyl]-3,3-dimethyl-1H,2H,3H-pyrrolo[3,2-b]pyridin-1-yl}-2-[(2R,5R)-5-methyl-2-{8-oxa-3-azabicyclo[3.2.1]octan-3-ylmethyl}piperazin-1-yl]ethan-1-one dihydrochloride], the pEC50 is 8.74 in assay [1] (setting [3]) and > 6.00 in assay [1] (setting [4]). Moreover, the inhibition at 0.04 µM in assay [2] worked out at 35%.
For `C[C@@H]1CN(CC(=O)N2CC(C)(C)c3ncc(Cc4ccc(F)cc4)cc32)[C@@H](CN2CCOC[C@H]2CF)CN1` [Example 19, 2-[(2R,5R)-2-{[(3S)-3-(Fluoromethyl)morpholin-4-yl]methyl}-5-methylpiperazin-1-yl]-1-{6-[(4-fluorophenyl)methyl]-3,3-dimethyl-1H,2H,3H-pyrrolo[3,2-b]pyridin-1-yl}ethan-1-one dihydrochloride] the same measures were 9.19, > 6.00 and 43%.
For the molecule `C[C@@H]1CN(CC(=O)N2CC(C)(C)c3ncc(Cc4ccc(F)cc4)cc32)[C@@H](CN2CC3CC2CO3)CN1` (stereo partly drawn) [Example 20, 1-{6-[(4-Fluorophenyl)methyl]-3,3-dimethyl-1H,2H,3H-pyrrolo[3,2-b]pyridin-1-yl}-2-[(2R,5R)-5-methyl-2-{2-oxa-5-azabicyclo[2.2.1]heptan-5-ylmethyl}piperazin-1-yl]ethan-1-one dihydrochloride], the pEC50 in assay [1] (setting [3]) is 8.55; in assay [1] (setting [4]), > 6.00. Further, in assay [2], the IC50 stood at 0.14 µM.
In the case of `C[C@@H]1CN(CC(=O)N2CC(C)(C)c3ncc(Cc4ccc(F)cc4)cc32)[C@@H](CN2C[C@@H](C)N[C@@H](C)C2)CN1` [Example 22, 2-[(2R,5R)-2-{[(3R,5S)-3,5-Dimethylpiperazin-1-yl]methyl}-5-methylpiperazin-1-yl]-1-{6-[(4-fluorophenyl)methyl]-3,3-dimethyl-1H,2H,3H-pyrrolo[3,2-b]pyridin-1-yl}ethan-1-one dihydrochloride], the pEC50 in assay [1] (setting [3]) is 7.52; in assay [1] (setting [4]) it was > 6.00. Moreover, the inhibition at 0.04 µM in assay [2] stood at 40%.
For `C[C@@H]1CN(CC(=O)N2CC(C)(C)c3ncc(Cc4ccccc4)cc32)[C@@H](CN2[C@H](C)COC[C@H]2C)CN1` [Example 29, 1-{6-Benzyl-3,3-dimethyl-1H,2H,3H-pyrrolo[3,2-b]pyridin-1-yl}-2-[(2R,5R)-2-{[(3R,5R)-3,5-dimethylmorpholin-4-yl]methyl}-5-methylpiperazin-1-yl]ethan-1-one dihydrochloride] the same measures were 9.40, > 6.00 and 47%.
